The values below come from US10047087B2, “Substituted pyrazolo[1,5-A] pyridine as tropomyosin receptor kinase (TrK) inhibitors” (Dr. Reddy's Laboratories Ltd., priority 2011, dated 2018).

Where two headings read alike, the source gives them in different places. A value given as a limit tells only on which side of the number the result lay.

This assay deals with T1, TrkA kinase (Homo sapiens, UniProt P04629).
T1 construct: purchased Upstate, USA
In words: In vitro TrkA inhibitory activity using TR-FRET assay. It is filed as biochemical. The following applies: 5 ng TrkA, 500 μM ATP. As for the experimental part: Determination of In Vitro TrkA Inhibitory Activity Using TR-FRET Assay
Compounds were screened in the TR-FRET assay with TrkA kinase. 5 ng of TrkA [Upstate, USA] kinase was used for assay. The compound was incubated with the kinase for 30 minutes at 20-35° C. After the incubation, substrate mix [40 nM Ultra light poly GT (Perkin Elmer, USA) and 500 μM ATP] was added. The above reaction was stopped by the addition of 40 mM EDTA after 30 minutes. The Eu-labelled antiphospho-tyrosine antibody [Perkin Elmer, USA] was added at 0.5 nM and the fluorescence emission at 615 nm/665 nm [excitation at 340 nm] was measured. The compounds were initially screened at 100 nM, 1 μM and 10 μM concentrations. The potent compounds with >25% inhibition at 1 μM of TrkA were taken for the full dose response studies. The final DMSO concentration in the assay was […]. For IC50 determination, ⅓^rd serial dilution was made from the 20 mM DMSO stock solution. 2 μl of these were transferred to the test wells containing 20 μl reaction mixture [Total reaction volume 22 μl]. The fluorescence was measured in Perkin Elmer Wallac 1420 Multilabel Counter Victor 3. The IC50 was determined by fitting the dose response data to a sigmoidal curve fitting equation using GraphPad Prism software version 5.
Background: In TR-FRET formats the signal depends on donor and acceptor labels being close together.

[1] abbreviates: both bounds given in nm, read-out: TrkA inhibitory activity in-vitro IC50.
The mark [2] stands for this setting: read-out: TrkA inhibitory activity in-vitro IC50.
[3] abbreviates: read-out: TrkA inhibition in-vitro IC50.
Where [4] appears, read: lower bound in nm [sic], upper bound in μM, read-out: TrkA inhibitory activity in-vitro IC50.

T1 sequence (P04629 33-796): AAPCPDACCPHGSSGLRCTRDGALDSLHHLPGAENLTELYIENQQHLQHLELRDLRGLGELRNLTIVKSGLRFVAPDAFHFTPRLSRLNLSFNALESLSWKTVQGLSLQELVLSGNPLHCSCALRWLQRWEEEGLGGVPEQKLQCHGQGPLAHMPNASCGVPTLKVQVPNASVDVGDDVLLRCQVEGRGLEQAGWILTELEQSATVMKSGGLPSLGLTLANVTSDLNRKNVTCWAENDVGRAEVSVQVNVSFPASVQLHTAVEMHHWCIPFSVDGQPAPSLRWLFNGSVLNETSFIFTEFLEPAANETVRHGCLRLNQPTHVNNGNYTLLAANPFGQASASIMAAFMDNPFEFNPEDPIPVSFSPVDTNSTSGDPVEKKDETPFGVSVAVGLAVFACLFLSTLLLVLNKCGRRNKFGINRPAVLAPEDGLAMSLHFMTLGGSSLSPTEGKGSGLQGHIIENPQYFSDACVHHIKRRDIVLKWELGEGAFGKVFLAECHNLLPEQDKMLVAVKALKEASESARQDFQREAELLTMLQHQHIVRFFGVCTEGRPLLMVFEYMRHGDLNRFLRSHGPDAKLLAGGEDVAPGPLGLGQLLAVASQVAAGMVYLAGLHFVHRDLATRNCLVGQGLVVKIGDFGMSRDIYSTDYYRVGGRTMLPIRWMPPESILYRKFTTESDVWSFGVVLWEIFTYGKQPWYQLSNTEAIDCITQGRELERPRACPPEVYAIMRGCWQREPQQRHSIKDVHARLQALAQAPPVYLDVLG

Usually IC50 stands for the concentration at which inhibition is half-maximal. As to `CC(C)(C)S(=O)(=O)NC(=O)c1cnn2ccc(N3CCC[C@@H]3c3cc(F)ccc3F)c(F)c12` [Example 61, (R)-N-(tert-butylsulfonyl)-5-(2-(2,5-difluorophenyl)pyrrolidin-1-yl)-4-fluoro pyrazolo[1,5-a] pyridine-3-carboxamide], the IC50 under setting [1] was 0.1 to 0.5 µM.

Consider `CC(C)(C)S(=O)(=O)NC(=O)c1cnn2ccc(N3CCC[C@@H]3c3cc(F)cc4c3OCCO4)cc12` [Example 130, Sodium (R)-(tert-butylsulfonyl)(5-(2-(7-fluoro-2,3-dihydrobenzo[b][1,4]dioxin-5-yl)pyrrolidin-1-yl)pyrazolo[1,5-a]pyridine-3-carbonyl)amide], for which, under setting [1], the IC50 lay in the range of 0.1 to 0.5 µM.

Turning to `Cc1nc(C)c(S(=O)(=O)NC(=O)c2cnn3ccc(N4CCC[C@@H]4c4cc(F)ccc4F)cc23)s1` [Example 20, (R)-5-(2-(2,5-difluorophenyl)pyrrolidin-1-yl)-N-((2,4-dimethylthiazol-5-yl)sulfonyl) pyrazolo[1,5-a]pyridine-3-carboxamide], the IC50 under setting [1] lay in the range of 0.1 to 0.5 µM.

In the case of `O=C(NS(=O)(=O)C1CCNCC1)c1cnn2ccc(N3CCC[C@@H]3c3cc(F)ccc3F)cc12` [Example 17, (R)-5-(2-(2,5-difluorophenyl)pyrrolidin-1-yl)-N-(piperidin-4-ylsulfonyl)pyrazolo[1,5-a] pyridine-3-carboxamide], the IC50 under setting [2] is 1 to 10 µM.

With `CC(C)(C)S(=O)(=O)NC(=O)c1cnn2ccc(N3CCC[C@@H]3c3cncc(F)c3)cc12` [Example 44, (R)-N-(tert-butylsulfonyl)-5-(2-(5-fluoropyridin-3-yl)pyrrolidin-1-yl)pyrazolo[1,5-a] pyridine-3-carboxamide], the 50% inhibitory concentration (IC50) under setting [3] lay in the range of 0.05 to 0.1 µM.

As to `O=C(NS(=O)(=O)C1(Cc2ccc(F)cc2)CC1)c1cnn2ccc(N3CCC[C@@H]3c3cc(F)ccc3F)cc12` [Example 41, (R)-5-(2-(2,5-difluorophenyl)pyrrolidin-1-yl)-N-((1-(4-fluorobenzyl)cyclopropyl)sulfonyl) pyrazolo[1,5-a]pyridine-3-carboxamide], the IC50 under setting [3] is at most 0.05 µM.

`CCN(CC)S(=O)(=O)NC(=O)c1cnn2ccc(N3CCC[C@@H]3c3cc(F)ccc3F)cc12` [Example 81, (R)-N-(N,N-diethylsulfamoyl)-5-(2-(2,5-difluorophenyl)pyrrolidin-1-yl)pyrazolo[1,5-a]pyridine-3-carboxamide]: the IC50 under setting [3] was at most 0.05 µM.

`CN(C(=O)c1cnn2ccc(N3CCC[C@@H]3c3cc(F)ccc3F)cc12)S(=O)(=O)c1cccc(C#N)c1` [Example 9, (R)-N-((3-cyanophenyl)sulfonyl)-5-(2-(2,5-difluorophenyl)pyrrolidin-1-yl)-N-methylpyrazolo[1,5-a] pyridine-3-carboxamide]: the IC50 under setting [3] is at most 0.05 µM.

Regarding `CN1CCN(S(=O)(=O)NC(=O)c2cnn3ccc(N4CCC[C@@H]4c4cc(F)ccc4F)cc23)CC1` [Example 86, (R)-5-(2-(2,5-difluorophenyl)pyrrolidin-1-yl)-N-((4-methylpiperazin-1-yl)sulfonyl)pyrazolo[1,5-a]pyridine-3-carboxamide], under setting [1], the IC50 was 0.1 to 0.5 µM.

Take `CN(C)c1ccc(S(=O)(=O)NC(=O)c2cnn3ccc(N4CCC[C@@H]4c4cc(F)ccc4F)cc23)cn1` [Example 23, (R)-5-(2-(2,5-difluorophenyl)pyrrolidin-1-yl)-N-((6-(dimethylamino)pyridin-3-yl)sulfonyl)pyrazolo[1,5-a] pyridine-3-carboxamide]: under setting [1], the IC50 fell in the range of 0.1 to 0.5 µM.

Take `CCN(C)S(=O)(=O)NC(=O)c1cnn2ccc(N3CCC[C@@H]3c3cc(F)cc(F)c3OCCF)cc12` [Example 94, (R)-5-(2-(3,5-difluoro-2-(2-fluoroethoxy)phenyl)pyrrolidin-1-yl)-N-(N-ethyl-N-methylsulfamoyl)pyrazolo[1,5-a]pyridine-3-carboxamide]: under setting [3], the IC50 was at most 0.05 µM.

`O=C(NS(=O)(=O)c1ccc(Cl)s1)c1cnn2ccc(N3CCC[C@@H]3c3cc(F)ccc3F)cc12` [Example 31, (R)-N-((5-chlorothiophen-2-yl)sulfonyl)-5-(2-(2,5-difluorophenyl)pyrrolidin-1-yl)pyrazolo [1,5-a]pyridine-3-carboxamide]: under setting [3], the IC50 was at most 0.05 µM.

Turning to `O=C(NS(=O)(=O)c1ccc(N2CCOCC2)cc1)c1cnn2ccc(N3CCC[C@@H]3c3cc(F)ccc3F)cc12` [Example 29, (R)-5-(2-(2,5-difluorophenyl)pyrrolidin-1-yl)-N-((4-morpholinophenyl)sulfonyl) pyrazolo[1,5-a]pyridine-3-carboxamide], under setting [1], the IC50 fell in the range of 0.1 to 0.5 µM.

As for `O=C(NS(=O)(=O)c1ccc(N2CC[C@H](O)C2)cc1)c1cnn2ccc(N3CCC[C@@H]3c3cc(F)ccc3F)cc12` [Example 8, 5-((R)-2-(2,5-difluorophenyl)pyrrolidin-1-yl)-N-((4-((S)-3-hydroxypyrrolidin-1-yl)phenyl)sulfonyl)pyrazolo[1,5-a] pyridine-3-carboxamide], the IC50 under setting [3] is at most 0.05 µM.

On to `Cc1nc(S(=O)(=O)NC(=O)c2cnn3ccc(N4CCC[C@@H]4c4cc(F)ccc4F)cc23)cn1C` [Example 15, (R)-5-(2-(2,5-difluorophenyl)pyrrolidin-1-yl)-N-((1,2-dimethyl-1H-imidazol-4-yl)sulfonyl)pyrazolo[1,5-a] pyridine-3-carboxamide], for which the IC50 under setting [4] fell in the range of 0.5 to 1 µM.

For `CC(C)S(=O)(=O)NC(=O)c1cnn2ccc(N3CCC[C@@H]3c3cc(F)cc(F)c3)cc12` [Example 71, (R)-5-(2-(3,5-difluorophenyl)pyrrolidin-1-yl)-N-(isopropylsulfonyl)pyrazolo[1,5-a] pyridine-3-carboxamide], the IC50 under setting [1] lay within 0.1 to 0.5 µM.

As for `CC(C)(C)S(=O)(=O)NC(=O)c1cnn2ccc(N3C[C@H](F)C[C@@H]3c3cc(F)ccc3F)cc12` [Example 58, N-(tert-butylsulfonyl)-5-((2R,4R)-2-(2,5-difluorophenyl)-4-fluoropyrrolidin-1-yl) pyrazolo[1,5-a]pyridine-3-carboxamide], under setting [4], the IC50 fell in the range of 0.5 to 1 µM.

`CC(C)(C)S(=O)(=O)NC(=O)c1cnn2ccc(N3C[C@@H](F)CC3c3cc(F)ccc3F)cc12` (single isomer, unassigned) [Example 53]: the IC50 under setting [2] fell in the range of 1 to 10 µM.

Take `O=C(NS(=O)(=O)N1CCCC1)c1cnn2ccc(N3CCC[C@@H]3c3cc(F)ccc3F)cc12` [Example 85, (R)-5-(2-(2,5-difluorophenyl)pyrrolidin-1-yl)-N-(pyrrolidin-1-ylsulfonyl)pyrazolo[1,5-a]pyridine-3-carboxamide]: the IC50 under setting [3] was at most 0.05 µM.

As to `CCN(CC)S(=O)(=O)NC(=O)c1cnn2ccc(N3CCC[C@@H]3c3cc(F)ccc3OCCF)cc12` [Example 88, (R)-N-(N,N-diethylsulfamoyl)-5-(2-(5-fluoro-2-(2-fluoroethoxy)phenyl)pyrrolidin-1-yl)pyrazolo[1,5-a]pyridine-3-carboxamide], the IC50 under setting [3] is at most 0.05 µM.

With `O=C(NS(=O)(=O)C1CCCCC1)c1cnn2ccc(N3CCC[C@@H]3c3cc(F)ccc3F)cc12` [Example 12, (R)-N-(cyclohexylsulfonyl)-5-(2-(2,5-difluorophenyl)pyrrolidin-1-yl)pyrazolo[1,5-a] pyridine-3-carboxamide], under setting [1], the concentration for half-maximal inhibition (IC50) lay in the range of 0.1 to 0.5 µM.

With `O=C(NS(=O)(=O)c1ccc(-n2cncn2)nc1)c1cnn2ccc(N3CCC[C@@H]3c3cc(F)cc(F)c3)cc12` [Example 72, (R)-N-((6-(1H-1,2,4-triazol-1-yl)pyridin-3-yl)sulfonyl)-5-(2-(3,5-difluorophenyl)pyrrolidin-1-yl)pyrazolo[1,5-a]pyridine-3-carboxamide], the IC50 under setting [1] is 0.1 to 0.5 µM.

Regarding `O=C(NS(=O)(=O)C1CCCC1)c1cnn2ccc(N3CCC[C@@H]3c3cc(F)ccc3F)cc12` [Example 13, (R)-N-(cyclopentylsulfonyl)-5-(2-(2,5-difluorophenyl)pyrrolidin-1-yl)pyrazolo[1,5-a] pyridine-3-carboxamide], the IC50 under setting [1] was in the range of 0.1 to 0.5 µM.

In the case of `CC1(S(=O)(=O)NC(=O)c2cnn3ccc(N4CCC[C@@H]4c4cc(F)ccc4F)cc23)CC1` [Example 134, Sodium (R)-(5-(2-(2,5-difluorophenyl)pyrrolidin-1-yl)pyrazolo[1,5-a]pyridine-3-carbonyl)((1-methylcyclopropyl)sulfonyl)amide], under setting [3], the IC50 was 0.05 to 0.1 µM.

Turning to `COCCOc1cc(F)cc([C@H]2CCCN2c2ccn3ncc(C(=O)NS(=O)(=O)C(C)(C)C)c3c2)c1` [Example 67, (R)-N-(tert-butylsulfonyl)-5-(2-(3-fluoro-5-(2-methoxyethoxy)phenyl)pyrrolidin-1-yl) pyrazolo[1,5-a]pyridine-3-carboxamide], under setting [4], the IC50 was 0.5 to 1 µM.

Turning to `CC(C)(C)S(=O)(=O)NC(=O)c1cnn2ccc(N3CC(F)(F)CC3c3cc(F)ccc3F)cc12` (single isomer, unassigned) [Example 55], the IC50 under setting [2] lay in the range of 1 to 10 µM.

`CN(CC1CC1)S(=O)(=O)NC(=O)c1cnn2ccc(N3CCC[C@@H]3c3cc(F)ccc3F)cc12` [Example 80, (R)-N-(N-(cyclopropylmethyl)-N-methylsulfamoyl)-5-(2-(2,5-difluorophenyl)pyrrolidin-1-yl)pyrazolo[1,5-a]pyridine-3-carboxamide]: the IC50 under setting [3] was at most 0.05 µM.
